Data: patent EP1017810B1, “AGONIST AND ANTAGONIST PEPTIDES OF CARCINOEMBRYONIC ANTIGEN (CEA)” (THE GOVERNMENT OF THE UNITED STATES OF AMERICA, as …, priority 1997, dated 2004)
Where no end group is shown, it is not given here.

Test system: CEA CTL T-Vac8
Test: initial screening cytotoxicity assay, 111In release from peptide-incubated C1R-A2 cells with T-Vac8 CTL
Format: cell-based, human
Details: peptide at 1, 0.1 and 0.01 µg/ml, E:T=1.45:1, 4 hours

| Compound | activation of T-Vac8 cytotoxicity (lysis of peptide-incubated targets) |
| --- | --- |
| CC(C)C[C@H](NC(=O)[C@H](CC(N)=O)NC(=O)[C@H](CC(C)C)NC(=O)[C@H](CC(=O)O)NC(=O)[C@H](C)NC(=O)CNC(=O)[C@H](CO)NC(=O)[C@H](CC(C)C)NC(=O)[C@@H](N)Cc1ccc(O)cc1)C(=O)O [CAP1-6D] | equal to or better than CAP1 |
| CC[C@H](C)[C@H](NC(=O)[C@H](CC(N)=O)NC(=O)[C@H](C)NC(=O)CNC(=O)[C@H](CO)NC(=O)[C@H](CC(C)C)NC(=O)[C@@H](N)Cc1ccc(O)cc1)C(=O)N[C@@H](CC(N)=O)C(=O)N[C@@H](CC(C)C)C(=O)O [CAP1-7I] | appeared to be active |
| YLSGACLNL [CAP1-6C] | equal to or better than CAP1 |
| YLSGFNLNL [CAP1-5F] | provided stimulation, albeit at reduced levels compared to CAP1 itself |
| YLSGINLNL [CAP1-5I] | provided stimulation, albeit at reduced levels compared to CAP1 itself |
| YLSGSNLNL [CAP1-5S] | provided stimulation, albeit at reduced levels compared to CAP1 itself |
